Results as given in patent EP4737454A1, “GLP-1 RECEPTOR AGONIST, AND PREPARATION METHOD THEREFOR AND USE THEREOF” (Wayne Biotechnology Co., Ltd., priority 2023, dated 2025).
pEC50: −log10 of the molar value.

These compounds were tested against Human GLP-1R (Homo sapiens, UniProt P43220) (assay: cAMP level determination in human GLP-1R stably transfected HEK293T cells (HTRF cAMP kit)). Conditions: 37°C 30 min.
Sequence of Human GLP-1R (P43220 24-463): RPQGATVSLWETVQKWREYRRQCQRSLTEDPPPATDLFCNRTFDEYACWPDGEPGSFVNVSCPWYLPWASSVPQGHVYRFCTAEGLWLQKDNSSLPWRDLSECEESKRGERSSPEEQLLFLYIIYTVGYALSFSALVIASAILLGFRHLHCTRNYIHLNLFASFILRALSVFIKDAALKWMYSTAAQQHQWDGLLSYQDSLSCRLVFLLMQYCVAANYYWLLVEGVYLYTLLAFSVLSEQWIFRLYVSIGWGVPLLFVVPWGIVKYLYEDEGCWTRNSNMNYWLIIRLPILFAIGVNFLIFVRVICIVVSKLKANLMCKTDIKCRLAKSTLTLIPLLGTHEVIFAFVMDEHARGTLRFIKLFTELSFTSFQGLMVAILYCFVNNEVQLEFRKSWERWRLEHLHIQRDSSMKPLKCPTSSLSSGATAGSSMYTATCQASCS
Format: cell-based
Procedure: Human GLP-1R HEK293T stably transfected cells were digested with trypsin, terminated with DMEM total (without p/s), centrifuged and washed twice with 1X Stimulation buffer, then resuspended in 1X stimulation buffer and counted. The cells were then prepared as a 1 Million/mL cell suspension in stimulation buffer. Compound powder was first prepared as a 10 mM stock solution in DMSO, then diluted to 2 mM with DMSO, and further prepared as 2X compound in 1X stimulation buffer (Cisbio kit buffer with freshly added IBMX at a final concentration of 0.5 mM). The top dose final concentration was 2000 nM, with a final DMSO concentration of 0.2%, diluted in a 1:3 gradient for 11 gradients.
According to the layout, 5 µl of compound was added to each well; Min wells contained 100 nM GLP-1, and Max wells contained 0.2% DMSO in 1X stimulation buffer. 5 µl of cell suspension was added to each well, centrifuged at 300 rpm at room temperature for 1 min, then incubated at 37°C for 30 min. 2X cAMP standards were prepared in 1X Stimulation buffer, with a top final concentration of 2.8 µM, diluted in a 1:3 gradient for 12 doses. According to the layout, 10 µl was added to each well. Finally, d2 and antibody were diluted 20-fold in 1X Detection buffer (Cisbio kit buffer), and 5 µl of each was added to each well according to the layout. After centrifugation at 300 rpm at room temperature for 1 min, the plate was incubated at room temperature for 2 hr.
Stimulation% was calculated based on Min and Max readings (665nm/615nm ratio) using the formula: 100*(ratio Max well - ratio test well)/(ratio Max well - ratio Min well). The cAMP concentration in each test well was derived from the cAMP standard curve, and the data was analyzed using GraphPad Prism 9 to plot four-parameter fit curves and calculate EC50 values using the formula: Y=Bottom + (Top-Bottom)/(1+10^((LogEC50-X)*HillSlope)). Table 1: cAMP Level Determination in Human GLP-1R Stably Transfected HEK293T Cells
Compound `C[C@H]1c2c(nn(-c3ccc(F)c(C4CC4)c3)c2-n2ccn(-c3ccc4c(cnn4C)c3F)c2=O)CCN1C(=O)c1cc2cc([C@@H]3CCOC(C)(C)C3)ccc2n1[C@@]1(c2nc(=O)o[nH]2)C[C@@H]1C` [Compound 1a] has a pEC50 of 7.45. With `C[C@H]1c2c(nn(-c3ccc(F)c(C4CC4)c3)c2-n2ccn(-c3ccc4c(cnn4C)c3F)c2=O)CCN1C(=O)c1cc2cc([C@H]3CCOC(C)(C)C3)ccc2n1[C@@]1(c2nc(=O)o[nH]2)C[C@@H]1C` [Compound 1b] the pEC50 was 7.76. `C[C@H]1c2c(nn(-c3ccc(F)c(C4CC4(F)F)c3)c2-n2ccn(-c3ccc4c(cnn4C)c3F)c2=O)CCN1C(=O)c1cc2cc(C3CCOC(C)(C)C3)ccc2n1[C@@]1(c2nc(=O)o[nH]2)C[C@@H]1C` (stereo partly drawn) [Compound 2] gave a pEC50 of 7.25. `C[C@H]1c2c(nn(-c3ccc(F)c(N4CCCC4)c3)c2-n2ccn(-c3ccc4c(cnn4C)c3F)c2=O)CCN1C(=O)c1cc2cc(C3CCOC(C)(C)C3)ccc2n1[C@@]1(c2nc(=O)o[nH]2)C[C@@H]1C` (stereo partly drawn) [Compound 3] showed a pEC50 of 7.58. For `C[C@H]1c2c(nn(-c3ccc(F)c(OC(F)(F)F)c3)c2-n2ccn(-c3ccc4c(cnn4C)c3F)c2=O)CCN1C(=O)c1cc2cc(C3CCOC(C)(C)C3)ccc2n1[C@@]1(c2nc(=O)o[nH]2)C[C@@H]1C` (stereo partly drawn) [Compound 4], the pEC50 was 7.46. In the case of `Cc1cc(-n2nc3c(c2-n2ccn(-c4ccc(C(=O)N(C)C5CC5)c(C(F)(F)F)c4)c2=O)[C@H](C)N(C(=O)c2cc4cc([C@H]5CCOC(C)(C)C5)ccc4n2[C@@]2(c4nc(=O)o[nH]4)C[C@@H]2C)CC3)cc(C)c1F` [Compound 6], the pEC50 was 8.29. With `CCc1cc(-n2ccn(-c3c4c(nn3-c3cc(C)c(F)c(C)c3)CCN(C(=O)c3cc5cc([C@H]6CCOC(C)(C)C6)ccc5n3[C@@]3(c5nc(=O)o[nH]5)C[C@@H]3C)[C@H]4C)c2=O)ccc1C(=O)N(C)C1CC1` [Compound 8] the pEC50 was 8.32. `Cc1cc(-n2nc3c(c2-n2ccn(-c4ccc(C(=O)N(C)C5CC5)c(C#N)c4)c2=O)[C@H](C)N(C(=O)c2cc4cc([C@H]5CCOC(C)(C)C5)ccc4n2[C@@]2(c4nc(=O)o[nH]4)C[C@@H]2C)CC3)cc(C)c1F` [Compound 9] was tested, and the pEC50 was 8.31. `Cc1cc(-n2nc3c(c2-n2ccn(-c4ccc(C(=O)N(C)C5CC5)cc4)c2=O)[C@H](C)N(C(=O)c2cc4cc([C@H]5CCOC(C)(C)C5)ccc4n2[C@@]2(c4nc(=O)o[nH]4)C[C@@H]2C)CC3)cc(C)c1F` [Compound 10] was tested, and the pEC50 was 8.07. Work on `Cc1cc(-n2nc3c(c2-n2ccn(-c4ccc(C(=O)N(C)C5CC5)c(OC(F)(F)F)c4)c2=O)[C@H](C)N(C(=O)c2cc4cc([C@H]5CCOC(C)(C)C5)ccc4n2[C@@]2(c4nc(=O)o[nH]4)C[C@@H]2C)CC3)cc(C)c1F` [Compound 12] yielded a pEC50 of 8.02. `Cc1cc(-n2nc3c(c2-n2ccn(-c4ccc(C(=O)N(C)C5CC5)c(C(F)(F)F)c4F)c2=O)[C@H](C)N(C(=O)c2cc4cc([C@H]5CCOC(C)(C)C5)ccc4n2[C@@]2(c4nc(=O)o[nH]4)C[C@@H]2C)CC3)cc(C)c1F` [Compound 14] showed a pEC50 of 8.25. `Cc1cc(-n2nc3c(c2-n2ccn(-c4ccc(C(=O)N(C)C5(C)CC5)c(C(F)(F)F)c4)c2=O)[C@H](C)N(C(=O)c2cc4cc([C@H]5CCOC(C)(C)C5)ccc4n2[C@@]2(c4nc(=O)o[nH]4)C[C@@H]2C)CC3)cc(C)c1F` [Compound 15] gave a pEC50 of 8.14. For `Cc1cc(-n2nc3c(c2-n2ccn(-c4ccc(C(=O)N(C)C5(C(F)(F)F)CC5)cc4)c2=O)[C@H](C)N(C(=O)c2cc4cc(C5CCOC(C)(C)C5)ccc4n2[C@@]2(c4nc(=O)o[nH]4)C[C@@H]2C)CC3)cc(C)c1F` (stereo partly drawn) [Compound 16], the pEC50 was 8.00. With `Cc1cc(-n2nc3c(c2-n2ccn(-c4ccc(C(=O)N(C)C5CC5)c(C)c4F)c2=O)[C@H](C)N(C(=O)c2cc4cc([C@H]5CCOC(C)(C)C5)ccc4n2[C@@]2(c4nc(=O)o[nH]4)C[C@@H]2C)CC3)cc(C)c1F` [Compound 17] the pEC50 was 8.05. `Cc1cc(-n2nc3c(c2-n2ccn(-c4cc(F)c(C(=O)N(C)C5CC5)c(Cl)c4F)c2=O)[C@H](C)N(C(=O)c2cc4cc(C5CCOC(C)(C)C5)ccc4n2[C@@]2(c4nc(=O)o[nH]4)C[C@@H]2C)CC3)cc(C)c1F` (stereo partly drawn) [Compound 19] showed a pEC50 of 7.79. With `Cc1cc(-n2nc3c(c2-n2ccn(-c4ccc(C(=O)N(C)C5CCC5)cc4)c2=O)[C@H](C)N(C(=O)c2cc4cc(C5CCOC(C)(C)C5)ccc4n2[C@@]2(c4nc(=O)o[nH]4)C[C@@H]2C)CC3)cc(C)c1F` (stereo partly drawn) [Compound 21] the pEC50 was 7.84. With `Cc1cc(-n2nc3c(c2-n2ccn(-c4ccc(C(=O)N5CCCC5)cc4)c2=O)[C@H](C)N(C(=O)c2cc4cc(C5CCOC(C)(C)C5)ccc4n2[C@@]2(c4nc(=O)o[nH]4)C[C@@H]2C)CC3)cc(C)c1F` (stereo partly drawn) [Compound 22] the pEC50 was 7.30. Compound `Cc1cc(-n2nc3c(c2-n2ccn(-c4ccc(C(=O)N(C)C5(C#N)CC5)c(F)c4)c2=O)[C@H](C)N(C(=O)c2cc4cc(C5CCOC(C)(C)C5)ccc4n2[C@@]2(c4nc(=O)o[nH]4)C[C@@H]2C)CC3)cc(C)c1F` (stereo partly drawn) [Compound 23] has a pEC50 of 7.86. In the case of `Cc1cc(-n2nc3c(c2-n2ccn(-c4ccc(C(=O)N(C)C5CC5)nc4)c2=O)[C@H](C)N(C(=O)c2cc4cc(C5CCOC(C)(C)C5)ccc4n2[C@@]2(c4nc(=O)o[nH]4)C[C@@H]2C)CC3)cc(C)c1F` (stereo partly drawn) [Compound 24], the pEC50 was 7.27. `Cc1cc(-n2nc3c(c2-n2ccn(-c4ccc(C(=O)N(C(C)C)C5CC5)cc4)c2=O)[C@H](C)N(C(=O)c2cc4cc(C5CCOC(C)(C)C5)ccc4n2[C@@]2(c4nc(=O)o[nH]4)C[C@@H]2C)CC3)cc(C)c1F` (stereo partly drawn) [Compound 25] showed a pEC50 of 7.93. For `Cc1cc(-n2nc3c(c2-n2ccn(-c4cc(F)c(C(=O)N(C)C5CC5)cc4F)c2=O)C(C)N(C(=O)c2cc4cc(C5CCOC(C)(C)C5)ccc4n2C2(c4nc(=O)o[nH]4)CC2C)CC3)cc(C)c1F` (stereo not drawn) [Compound 26], the pEC50 was 7.94. `Cc1cc(-n2nc3c(c2-n2ccn(-c4ccc(C(=O)N(C)C5CC5)cn4)c2=O)[C@H](C)N(C(=O)c2cc4cc(C5CCOC(C)(C)C5)ccc4n2[C@@]2(c4nc(=O)o[nH]4)C[C@@H]2C)CC3)cc(C)c1F` (stereo partly drawn) [Compound 29] was tested, and the pEC50 was 6.99. `Cc1cc(-n2nc3c(c2-n2ccn(-c4ccc(C(=O)N(C)C5CC5)nn4)c2=O)[C@H](C)N(C(=O)c2cc4cc(C5CCOC(C)(C)C5)ccc4n2[C@@]2(c4nc(=O)o[nH]4)C[C@@H]2C)CC3)cc(C)c1F` (stereo partly drawn) [Compound 30] was tested, and the pEC50 was 6.69. With `Cc1cc(-n2nc3c(c2-n2ccn(-c4ccc(C(=O)N(C)C5CC5)c(OC(F)F)c4)c2=O)[C@H](C)N(C(=O)c2cc4cc(C5CCOC(C)(C)C5)ccc4n2[C@@]2(c4nc(=O)o[nH]4)C[C@@H]2C)CC3)cc(C)c1F` (stereo partly drawn) [Compound 31] the pEC50 was 7.82. With `Cc1cc(-n2nc3c(c2-n2ccn(-c4cnc(C(=O)N(C)C5CC5)nc4)c2=O)[C@H](C)N(C(=O)c2cc4cc(C5CCOC(C)(C)C5)ccc4n2[C@@]2(c4nc(=O)o[nH]4)C[C@@H]2C)CC3)cc(C)c1F` (stereo partly drawn) [Compound 32] the pEC50 was 7.10. For `Cc1cc(-n2nc3c(c2-n2ccn(-c4ccc(C(=O)N(C)C5(C)CC5)c(OC(F)(F)F)c4)c2=O)[C@H](C)N(C(=O)c2cc4cc(C5CCOC(C)(C)C5)ccc4n2[C@@]2(c4nc(=O)o[nH]4)C[C@@H]2C)CC3)cc(C)c1F` (stereo partly drawn) [Compound 34], the pEC50 was 8.13. With `Cc1cc(-n2ccn(-c3c4c(nn3-c3cc(C)c(F)c(C)c3)CCN(C(=O)c3cc5cc(C6CCOC(C)(C)C6)ccc5n3[C@@]3(c5nc(=O)o[nH]5)C[C@@H]3C)[C@H]4C)c2=O)ccc1C(=O)N(C)C1(C)CC1` (stereo partly drawn) [Compound 35] the pEC50 was 7.70.
